Experimental data taken from patent US9278962B2 (Cytokinetics, Inc., priority 2011, dated 2016).

System: rabbit skeletal myofibrils (approximately 90% fast fibers)
Assay: Activation of fast skeletal myofibrils (PUMA coupled-enzyme ATPase assay, AC1.4)
Format: biochemical
Details: concentration at which the compound increased enzymatic activity by 40%, calcium at pCa25

SMILES | Mean AC1.4 (Table 2) | also measured
Oc1cccc(Cc2nsc(NCCc3cccc(Cl)c3)n2)c1 [3-[(5-{[2-(3-chlorophenyl)ethyl]amino}-1,2,4-thiadiazol-3-yl)methyl]phenol] | B (B=1-10 uM) | –
Fc1ccccc1-c1nnc(NC[C@]2(c3ncccc3F)C[C@H](F)C2)s1 [N-((3-fluoro-1-(3-fluoropyridin-2-yl)cyclobutyl)methyl)-5-(2-fluorophenyl)-1,3,4-thiadiazol-2-amine] | – | Mean AC1.4 (Table 3): A (A=<1 uM)
Cn1nccc1-c1nnc(NC[C@]2(c3ncccc3F)C[C@H](F)C2)s1 [N-((3-fluoro-1-(3-fluoropyridin-2-yl)cyclobutyl)methyl)-5-(1-methyl-1H-pyrazol-5-yl)-1,3,4-thiadiazol-2-amine] | – | Mean AC1.4 (Table 3): D (D=>20 uM)
CC(Nc1nc(-c2cccc(C(N)=O)c2)ns1)C(=O)c1ccc(F)cc1 (stereo not shown) [3-(5-{[2-(4-fluorophenyl)-1-methyl-2-oxoethyl]amino}-1,2,4-thiadiazol-3-yl)benzamide] | C (C=10-20 uM) | –
N#Cc1cccc(-c2nnc(NCC3(c4ncccc4F)CCC3)s2)c1 [3-(5-((1-(3-fluoropyridin-2-yl)cyclobutyl)methylamino)-1,3,4-thiadiazol-2-yl)benzonitrile] | – | Mean AC1.4 (Table 3): B (B=1-10 uM)
Fc1cccnc1C1(CNc2nc(-c3ccccc3)cs2)CCC1 [N-((1-(3-fluoropyridin-2-yl)cyclobutyl)methyl)-4-phenylthiazol-2-amine] | – | Mean AC1.4 (Table 5): B (B=1-10 uM)
COC(=O)N1CCN(Cc2nsc(NCC(C)(C)c3ccc(F)cc3)n2)CC1 [methyl 4-[(5-{[2-(4-fluorophenyl)-2-methylpropyl]amino}-1,2,4-thiadiazol-3-yl)methyl]piperazinecarboxylate] | C (C=10-20 uM) | –
CC(C)(CNc1nc(CCC(=O)N2CC[C@@H](O)C2)ns1)c1ccc(F)cc1 [1-((3R)-3-hydroxypyrrolidinyl)-3-(5-{[2-(4-fluorophenyl)-2-methylpropyl]amino}(1,2,4-thiadiazol-3-yl))propan-1-one] | D (D=>20 uM) | –
CC(C)(CNc1ncns1)c1ccc(F)cc1 [[2-(4-fluorophenyl)-2-methylpropyl]-1,2,4-thiadiazol-5-ylamine] | B (B=1-10 uM) | –
NC(=O)c1ccc2nc(NCC3(c4ncccc4F)CCC3)sc2c1 [2-((1-(3-fluoropyridin-2-yl)cyclobutyl)methylamino)benzo[d] thiazole-6-carboxamide] | – | Mean AC1.4 (Table 4): B (B=1-10 uM)
Fc1cccnc1C1(CNc2nnc(-c3nccs3)s2)CCC1 [N-((1-(3-fluoropyridin-2-yl)cyclobutyl)methyl)-5-(thiazol-2-yl)-1,3,4-thiadiazol-2-amine] | – | Mean AC1.4 (Table 3): B (B=1-10 uM)
Cc1nc(NCC2(c3ncccc3F)CCC2)sc1-c1ccccc1 [N-((1-(3-fluoropyridin-2-yl)cyclobutyl)methyl)-4-methyl-5-phenylthiazol-2-amine] | – | Mean AC1.4 (Table 5): A (A=<1 uM)
COc1cccc(C2(CNc3nc4ccc(C(N)=O)cc4s3)CCC2)n1 [2-((1-(6-methoxypyridin-2-yl)cyclobutyl)methylamino)benzo[d] thiazole-6-carboxamide] | – | Mean AC1.4 (Table 4): B (B=1-10 uM)
Oc1ccc(CCNc2nc(Cc3cccc(O)c3)ns2)cc1 [3-[(5-{[2-(4-hydroxyphenyl)ethyl]amino}-1,2,4-thiadiazol-3-yl)methyl]phenol] | D (D=>20 uM) | –
N#Cc1ccc(-c2nnc(NC[C@]3(c4ncccc4F)C[C@H](F)C3)s2)s1 [5-(5-((3-fluoro-1-(3-fluoropyridin-2-yl)cyclobutyl)methylamino)-1,3,4-thiadiazol-2-yl)thiophene-2-carbonitrile] | – | Mean AC1.4 (Table 3): D (D=>20 uM)
CC(C)(Nc1nnc(-c2cc(Br)ccc2F)s1)c1ncccc1F [5-(5-bromo-2-fluorophenyl)-N-(2-(3-fluoropyridin-2-yl)propan-2-yl)-1,3,4-thiadiazol-2-amine] | – | Mean AC1.4 (Table 3): B (B=1-10 uM)
NC(=O)c1ccc2nc(NCCc3ccc(F)cc3)sc2c1 [2-(4-fluorophenethylamino)benzo[d] thiazole-6-carboxamide] | – | Mean AC1.4 (Table 4): B (B=1-10 uM)
Oc1cccc(Cc2nsc(NCc3ccc(Cl)cc3)n2)c1 [3-[(5-{[(4-chlorophenyl)methyl]amino}-1,2,4-thiadiazol-3-yl)methyl]phenol] | D (D=>20 uM) | –
CC(C)(CNc1nc(CCCNS(C)(=O)=O)ns1)c1ccc(F)cc1 [[3-(5-{[2-(4-fluorophenyl)-2-methylpropyl]amino}(1,2,4-thiadiazol-3-yl))propyl](methylsulfonyl)amine] | B (B=1-10 uM) | –
COc1cccc(Cc2nsc(Nc3ccc(Cl)c(Cl)c3)n2)c1 [(3,4-dichlorophenyl){3-[(3-methoxyphenyl)methyl](1,2,4-thiadiazol-5-yl)}amine] | D (D=>20 uM) | –
Fc1ccc(Cc2nsc(NCCc3ccc(F)c(F)c3)n2)cc1 [[2-(3,4-difluorophenyl)ethyl]{3-[(4-fluorophenyl)methyl](1,2,4-thiadiazol-5-yl)}amine] | C (C=10-20 uM) | –

The next lines start with results.

Mean AC1.4 (Table 2) | SMILES | also measured
B (B=1-10 uM) | COc1ccc(-c2nsc(NCC(C)(C)c3ccc(F)cc3)n2)cn1 [[2-(4-fluorophenyl)-2-methylpropyl][3-(6-methoxy(3-pyridyl))(1,2,4-thiadiazol-5-yl)]amine] | –
C (C=10-20 uM) | CC(C)Nc1nsc(NCC(C)(C)c2ccc(F)cc2)n1 [[2-(4-fluorophenyl)-2-methylpropyl]{3-[(methylethyl)amino](1,2,4-thiadiazol-5-yl)}amine] | –
B (B=1-10 uM) | CCc1nsc(NCC(C)(C)c2ccc(F)cc2)n1 [(3-ethyl(1,2,4-thiadiazol-5-yl))[2-(4-fluorophenyl)-2-methylpropyl]amine] | –
A (A=<1 uM) | CC(C)(CNc1nc(-c2ccc3c(N)n[nH]c3c2)ns1)c1ccc(F)cc1 [[3-(3-amino(1H-indazol-6-yl))(1,2,4-thiadiazol-5-yl)][2-(4-fluorophenyl)-2-methylpropyl]amine] | –
A (A=<1 uM) | CC(C)(CNc1nc(-c2ccc3[nH]nc(N)c3c2)ns1)c1ccc(F)cc1 [[3-(3-amino(1H-indazol-5-yl))(1,2,4-thiadiazol-5-yl)][2-(4-fluorophenyl)-2-methylpropyl]amine] | –
A (A=<1 uM) | CC(C)(CNc1nc(-c2cccc(O)c2)ns1)c1ccc(F)cc1 [3-(5-{[2-(4-fluorophenyl)-2-methylpropyl]amino}-1,2,4-thiadiazol-3-yl)phenol] | –
A (A=<1 uM) | CC(C)(CNc1nc(-c2cccc(C(N)=O)c2)ns1)c1ccc(F)cc1 [3-(5-{[2-(4-fluorophenyl)-2-methylpropyl]amino}-1,2,4-thiadiazol-3-yl)benzamide] | –
A (A=<1 uM) | CC(C)(CNc1nc(-c2ccc(C(N)=O)c(F)c2)ns1)c1ccc(F)cc1 [2-fluoro-4-(5-{[2-(4-fluorophenyl)-2-methylpropyl]amino}(1,2,4-thiadiazol-3-yl))benzamide] | –
A (A=<1 uM) | CNC(=O)c1cccc(-c2nsc(NCC(C)(C)c3ccc(F)cc3)n2)c1 [[3-(5-{[2-(4-fluorophenyl)-2-methylpropyl]amino}(1,2,4-thiadiazol-3-yl))phenyl]-N-methylcarboxamide] | –
A (A=<1 uM) | CC(C)(CNc1nc(-c2ccc(O)cc2Cl)ns1)c1ccc(F)cc1 [3-chloro-4-(5-{[2-(4-fluorophenyl)-2-methylpropyl]amino}(1,2,4-thiadiazol-3-yl))phenol] | –
